Target: T1, EGFR (Homo sapiens, UniProt P00533)
T1 construct: endogenous in cells; host or cells: A431 cells (lysate, captured with SUMO1 anti-EGFR antibody)
Assay: Biochemical EGFR Assay
Parameters: concentration or dose not given beside the values
Protocol: This assay measures the in vitro kinase activity of EGFR using ELISA.
1. Corning 96-well Elisa plates (Corning Catalog No. 25805-96).
2. SUMO1 monoclonal anti-EGFR antibody (Biochemistry Lab, SUGEN, Inc.).
3. PBS (Dulbecco's Phosphate-Buffered Saline, Gibco Catalog No. 450-1300EB).
6. A431 cell lysate (Screening Lab, SUGEN, Inc.)
9. Adenosine-5′-triphosphate (ATP, from Equine muscle, Sigma Cat. No. A-5394).
Prepare a 1.0 mM solution in dH2O. This reagent should be made up immediately prior to use and kept on ice.
Prepare a 1.0 M stock solution in dH2O.
11. ATP/MnCl2 phosphorylation mix
This reagent should be prepared immediately before use and kept on ice
12. NUNC 96-well V bottom polypropylene plates (Applied Scientific Cat. No. AS-72092).
13. Ethylenediaminetetraacetic acid (EDTA)
Prepare 200 mM working solution in dH2O. Adjust to pH 8.0 with 10 N NaOH.
14. Rabbit polyclonal anti-phosphotyrosine serum (Biochemistry Lab, SUGEN, Inc.)
15. Goat anti-rabbit IgG peroxidase conjugate (Biosource Cat. No. ALI0404)
16. ABTS (2,2′-azino-bis(3-ethylbenzthiazoline-6-sulfonic acid), Sigma Cat. No. A-1888).
Mix first two ingredients in about 900 ml dH2O, adjust pH to 4.0 with phosphoric acid. Add ABTS, cover, let sit about 0.5 hr., filter. The solution should be kept in the dark at 4° C. until ready to use.
17. Hydrogen peroxide 30% solution (Fisher Cat. No. H325)
Mix 15 ml ABTS solution and 2.0 μl H2O2. Prepare 5 minutes before use.
1. Coat Corning 96 well ELISA plates with 0.5 μg SUMO1 in 100 μl PBS per well, store overnight at 4° C.
2. Remove unbound SUMO1 from wells by inverting plate to remove liquid. Wash 1× with dH2O. Pat the plate on a paper towel to remove excess liquid.
3. Add 150 μl of Blocking Buffer to each well. Incubate for 30 min. at room temperature with shaking.
4. Wash plate 3× with deionized water, then once with TBST. Pat plate on a paper towel to remove excess liquid and bubbles.
5. Dilute lysate in PBS (7 μg lysate/100 μl PBS)
6. Add 100 μl of diluted lysate to each well. Shake at room temperature for 60 min.
7. Wash plates as described in 4, above.
8. Add 120 μl TBS to ELISA plate containing captured EGFR.
9. Dilute test compound 1:10 in TBS in 96-well polypropylene plates (ie. 10 μl compound+90 μl TBS).
10. Add 13.5 μl diluted test compound to ELISA plate.
11. Incubate for 30 minutes while shaking at room temperature.
13. After 5 minutes, stop reaction by adding 16.5 μl of 200 mM EDTA (pH 8.0) to each well, shaking continuously. After the EDTA has been added, shake for 1 min.
14. Wash 4× with deionized water, twice with TBST.
15. Add 100 μl anti-phosphotyrosine (1:3000 dilution in TBST) per well. Incubate 30-45 min. at room temperature, with shaking.
16. Wash as described in 4, above.
17. Add 100 μl Biosource Goat anti-rabbit IgG peroxidase conjugate (1:2000 dilution in TBST) to each well. Incubate 30 min. at room temperature, with shaking.
18. Wash as described in 4, above.
19. Add 100 μl of ABTS/H2O2 solution to each well.
20. Incubate 5 to 10 minutes with shaking. Remove any bubbles.
21. If necessary stop reaction with the addition of 100 μl 0.2 M HCl per well.
22. Read assay on Dynatech MR7000 ELISA reader. Test Filter: 410 nM Reference Filter: 630 nM

T1 sequence (P00533 25-1210): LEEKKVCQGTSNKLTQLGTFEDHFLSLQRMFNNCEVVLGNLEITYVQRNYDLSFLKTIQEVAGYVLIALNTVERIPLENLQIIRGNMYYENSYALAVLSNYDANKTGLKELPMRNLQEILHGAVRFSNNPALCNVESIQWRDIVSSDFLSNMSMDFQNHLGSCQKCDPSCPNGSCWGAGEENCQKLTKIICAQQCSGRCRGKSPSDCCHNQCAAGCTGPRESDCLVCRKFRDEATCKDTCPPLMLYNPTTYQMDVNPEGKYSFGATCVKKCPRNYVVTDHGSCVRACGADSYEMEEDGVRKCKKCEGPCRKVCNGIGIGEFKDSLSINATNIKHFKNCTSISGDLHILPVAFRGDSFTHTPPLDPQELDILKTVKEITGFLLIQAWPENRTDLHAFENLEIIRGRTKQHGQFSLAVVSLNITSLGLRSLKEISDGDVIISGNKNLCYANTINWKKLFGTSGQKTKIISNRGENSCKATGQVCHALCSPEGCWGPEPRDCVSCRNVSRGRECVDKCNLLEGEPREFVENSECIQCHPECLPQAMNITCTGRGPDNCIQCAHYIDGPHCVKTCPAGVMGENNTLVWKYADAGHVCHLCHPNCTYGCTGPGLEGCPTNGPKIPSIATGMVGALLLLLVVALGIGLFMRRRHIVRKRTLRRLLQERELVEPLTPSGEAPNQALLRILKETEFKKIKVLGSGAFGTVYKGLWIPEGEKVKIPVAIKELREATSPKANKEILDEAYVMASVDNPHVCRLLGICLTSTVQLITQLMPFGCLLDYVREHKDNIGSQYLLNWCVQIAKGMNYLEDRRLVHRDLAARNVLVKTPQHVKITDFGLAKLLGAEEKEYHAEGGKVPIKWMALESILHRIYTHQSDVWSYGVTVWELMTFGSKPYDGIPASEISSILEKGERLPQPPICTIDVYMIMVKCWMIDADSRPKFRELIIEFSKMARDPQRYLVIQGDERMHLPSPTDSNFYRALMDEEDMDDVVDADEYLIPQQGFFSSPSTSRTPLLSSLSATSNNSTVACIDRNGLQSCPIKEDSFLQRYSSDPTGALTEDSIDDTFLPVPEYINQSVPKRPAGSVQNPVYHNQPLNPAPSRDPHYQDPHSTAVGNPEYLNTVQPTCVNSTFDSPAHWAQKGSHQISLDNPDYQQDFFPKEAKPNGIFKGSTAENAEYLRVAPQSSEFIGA

| Structure (SMILES) | Biochem EGFR % Inhibition (P.167) [%] |
| --- | --- |
| Cc1c(Br)cc(Br)c2c1C(=Cc1ccc(F)cc1)C(=O)N2 [10717/H05] | −2.0 |
| Cc1c(Br)cc(Br)c2c1C(=Cc1c[nH]c3ccccc13)C(=O)N2 [10717/H06] | −16.8 |
| Cc1ccc(C=C2C(=O)Nc3c(Br)cc(Br)c(C)c32)s1 [10717/H07] | 91.2 |
| Cc1c(Br)cc(Br)c2c1C(=Cc1ccc(Br)cc1)C(=O)N2 [10717/H08] | 33.4 |
| Cc1c(Br)cc(Br)c2c1C(=Cc1ccc[nH]1)C(=O)N2 [10717/H09] | 5.4 |
| COc1cccc(O)c1C=C1C(=O)Nc2c(Br)cc(Br)c(C)c21 [10717/H10] | 0.5 |
| Cc1[nH]c(C=C2C(=O)Nc3c(Br)cc(Br)c(C)c32)c(Br)c1Br [10717/H11] | 55.6 |
| Cc1c(Br)cc(Br)c2c1C(=Cc1ccc(Br)o1)C(=O)N2 [10726/H05] | 2.2 |
| Cc1cn(C)cc1C=C1C(=O)Nc2c(Br)cc(Br)c(C)c21 [10726/H06] | −9.2 |
| Cc1c(Br)cc(Br)c2c1C(=Cc1cc(O)c3c(c1O)CCCC3)C(=O)N2 [10726/H07] | 31.2 |
| Cc1c(Br)cc(Br)c2c1C(=C1C(=O)Nc3ccc(F)cc31)C(=O)N2 [10726/H08] | −16.6 |
| Cc1c(Br)cc(Br)c2c1C(=C1C(=O)Nc3ccccc31)C(=O)N2 [10726/H09] | −0.1 |
| CCc1ccc(C=C2C(=O)Nc3c(Br)cc(Br)c(C)c32)s1 [10726/H10] | 12.0 |
| COc1ccc(C=C2C(=O)Nc3c(Br)cc(Br)c(C)c32)cc1 [10726/H11] | 1.5 |
| CCN(CC)c1ccc(C=C2C(=O)Nc3c(Br)cc(Br)c(C)c32)cc1 [10727/H02] | −37.1 |
| CCc1cc(CC)c(C=C2C(=O)Nc3c(Br)cc(Br)c(C)c32)[nH]1 [10727/H03] | 4.5 |
| Cc1c(Br)cc(Br)c2c1C(=Cc1cc(Cl)cc(Br)c1O)C(=O)N2 [10727/H04] | 19.2 |
| Cc1c(Br)cc(Br)c2c1C(=Cc1ccccc1Sc1ccc(Cl)cc1)C(=O)N2 [10727/H05] | 0.4 |
| Cc1c(Br)cc(Br)c2c1C(=Cc1cc3c(cc1Cl)OCO3)C(=O)N2 [10727/H06] | −35.8 |
| Cc1c(Br)cc(Br)c2c1C(=Cc1coc3ccccc3c1=O)C(=O)N2 [10727/H07] | −17.3 |

| Structure (SMILES) | Biochem EGFR % Inhibition (P.167) [%] |
| --- | --- |
| Cc1c(Br)cc(Br)c2c1C(=Cc1cccc(C#N)c1)C(=O)N2 [10727/H08] | −8.0 |
| Cc1c(Br)cc(Br)c2c1C(=Cc1ccc(C#N)cc1)C(=O)N2 [10727/H09] | −6.1 |
| Cc1c(Br)cc(Br)c2c1C(=Cc1cc(O)ccc1O)C(=O)N2 [10727/H10] | 83.6 |
| COc1cccc(C=C2C(=O)Nc3c(Br)cc(Br)c(C)c32)c1OC [10727/H11] | −3.5 |
| COc1ccc(OC)c(C=C2C(=O)Nc3c(Br)cc(Br)c(C)c32)c1 [10728/H02] | −36.6 |
| COc1cccc(OC)c1C=C1C(=O)Nc2c(Br)cc(Br)c(C)c21 [10728/H03] | 3.5 |
| COc1cc(C=C2C(=O)Nc3c(Br)cc(Br)c(C)c32)cc(OC)c1 [10728/H04] | −0.6 |
| Cc1c(Br)cc(Br)c2c1C(=Cc1ccc3c(c1)Cc1ccccc1-3)C(=O)N2 [10728/H06] | −22.8 |
| Cc1c(Br)cc(Br)c2c1C(=Cc1cccc(C(F)(F)F)c1F)C(=O)N2 [10728/H07] | −25.8 |
| Cc1c(Br)cc(Br)c2c1C(=Cc1c(F)cccc1C(F)(F)F)C(=O)N2 [10728/H09] | −6.1 |
| Cc1c(Br)cc(Br)c2c1C(=Cc1ccccc1OCC(=O)O)C(=O)N2 [10728/H10] | −22.4 |
| COc1cc(C=C2C(=O)Nc3c(Br)cc(Br)c(C)c32)cc2c1OCO2 [10728/H11] | −25.6 |
| COc1ccc2ccccc2c1C=C1C(=O)Nc2c(Br)cc(Br)c(C)c21 [10729/H02] | −10.7 |
| COc1ccc(C=C2C(=O)Nc3c(Br)cc(Br)c(C)c32)c2ccccc12 [10729/H03] | 30.3 |
| CSc1ccc(C=C2C(=O)Nc3c(Br)cc(Br)c(C)c32)cc1 [10729/H04] | −4.4 |
| Cc1ccsc1C=C1C(=O)Nc2c(Br)cc(Br)c(C)c21 [10729/H05] | −4.4 |
| Cc1c(Br)cc(Br)c2c1C(=Cc1cccc(Oc3ccccc3)c1)C(=O)N2 [10729/H06] | −10.3 |
| Cc1c(Br)cc(Br)c2c1C(=Cc1ccccn1)C(=O)N2 [10729/H07] | 30.0 |
| Cc1c(Br)cc(Br)c2c1C(=Cc1cccnc1)C(=O)N2 [10729/H08] | 8.7 |
| Cc1c(Br)cc(Br)c2c1C(=Cc1ccncc1)C(=O)N2 [10729/H09] | 8.0 |

| Structure (SMILES) | Biochem EGFR % Inhibition (P.167) [%] |
| --- | --- |
| Cc1c(Br)cc(Br)c2c1C(=Cc1ccc(N3CCCC3)cc1)C(=O)N2 [10729/H10] | 2.1 |
| Cc1c(Br)cc(Br)c2c1C(=CC1C=CCCC1)C(=O)N2 (centres unmarked) [10729/H11] | 0.8 |
| COc1ccc(C=C2C(=O)Nc3c(Br)cc(Br)c(C)c32)c(OC)c1OC [10730/H02] | 12.6 |
| COc1cc(OC)c(OC)cc1C=C1C(=O)Nc2c(Br)cc(Br)c(C)c21 [10730/H03] | −3.4 |
| COc1cc(C=C2C(=O)Nc3c(Br)cc(Br)c(C)c32)cc(OC)c1OC [10730/H04] | −29.5 |
| CC(=O)n1cc(C=C2C(=O)Nc3c(Br)cc(Br)c(C)c32)c2ccccc21 [10730/H05] | −20.1 |
| Cc1c(Br)cc(Br)c2c1C(=Cc1ccc(-c3ccccc3Cl)o1)C(=O)N2 [10730/H07] | −3.2 |
| Cc1c(Br)cc(Br)c2c1C(=Cc1cc3ccccc3nc1Cl)C(=O)N2 [10730/H08] | −15.8 |
| COC1CC(C=C2C(=O)Nc3c(Br)cc(Br)c(C)c32)C(OC)O1 (centres unmarked) [10730/H10] | 1.7 |
| Cc1cc(C=C2C(=O)Nc3c(Br)cc(Br)c(C)c32)oc1C [10730/H11] | 26.4 |
| CCn1c2ccccc2c2cc(C=C3C(=O)Nc4c(Br)cc(Br)c(C)c43)ccc21 [10731/H02] | −9.5 |
| Cc1cc2occ(C=C3C(=O)Nc4c(Br)cc(Br)c(C)c43)c(=O)c2cc1C [10731/H03] | −1.5 |
| C=C(C)C1CC=C(C=C2C(=O)Nc3c(Br)cc(Br)c(C)c32)CC1 (centres unmarked) [10731/H04] | −1.7 |
| Cc1c(Br)cc(Br)c2c1C(=Cc1coc3ccc(C(C)C)cc3c1=O)C(=O)N2 [10731/H05] | −3.6 |
| Cc1ccc2occ(C=C3C(=O)Nc4c(Br)cc(Br)c(C)c43)c(=O)c2c1 [10731/H06] | −7.8 |
| Cc1c(Br)cc(Br)c2c1C(=Cc1coc3ccc([N+](=O)[O-])cc3c1=O)C(=O)N2 [10731/H07] | −1.7 |
| Cc1c(Br)cc(Br)c2c1C(=Cc1c[nH]c(=O)[nH]c1=O)C(=O)N2 [10731/H08] | −0.5 |
| COc1ccc2[nH]cc(C=C3C(=O)Nc4c(Br)cc(Br)c(C)c43)c2c1 [10731/H09] | −2.7 |
| Cc1c(Br)cc(Br)c2c1C(=C1C(=O)N(C)c3ccccc31)C(=O)N2 [10731/H10] | 3.5 |
